Patent publication US9808434B2, “Compound for treating cancer and diabetes” (CITY OF HOPE, priority 2011, dated 2017)

What was measured:
B16-F0 melanoma = assay type: in vivo
Experimental: For melanoma studies, C57B mice (for syngeneic B16-F0 mouse melanoma model) and Hsd: Athymic nude nu/nu mice (for A2058 human melanoma mouse xenografts model), were obtained from Harlan, Indianapolis, Ind. All animal experiments were carried out in accordance with a protocol approved by the Institutional Animal Care and Use Committee (IACUC). In each model, ten 10-weeks-old mice were divided into two groups of 5 animals (treated with corn oil (vehicle), and COH-SR4 compound 4 mg/kg b.w.). All animals were injected with 2×10^6 melanoma cells suspensions in 100 μL of PBS, subcutaneously into one flank of each mouse. Treatment was started 10 days after the implantation to see palpable tumor growth. Treatment consisted of 0.1 mg of COH-SR4/mice in 200 μL corn oil by oral gavage alternate day. Control groups were treated with 200 μL corn oil by oral gavage alternate days. Animals were examined daily for signs of tumor growth. Tumors were measured in two dimensions using calipers. Photographs of animals were taken at day 1, day 10, day 14, day 18, day 20, day 30, and day 51 after subcutaneous injection, are shown for all groups. Photographs of tumors were also taken at day 20 (for syngeneic model), and at day 51 (for xenograft model).
C57B mice for syngeneic model were obtained from Harlan, Indianapolis, Ind. All animal experiments were carried out in accordance with a protocol approved by the Institutional Animal Care and Use Committee (IACUC). Ten 10-weeks-old mice were divided into two groups of 5 animals (treated with corn oil (vehicle), and COH-SR4 4 mg/kg body weight). All 10 animals were injected with 1×10^6 mouse melanoma cells (B16-F0) suspensions in 100 μL of PBS, subcutaneously into one flank of each mouse. Treatment was started 10 days after the B16 melanoma cells implantation to see palpable tumor growth. Treatment consisted of 0.1 mg of COH-SR4/mice in 200 μL corn oil by oral gavage alternate day. Control groups were treated with 200 μL corn oil by oral gavage alternate day. Animals were examined daily for signs of tumor growth, and body weights were recorded. Tumors were measured in two dimensions using calipers. Photographs of animals were taken at day 1, day 10, day 14, day 18, and day 20 after subcutaneous injection, are shown for all groups. Photographs of tumors were also taken at day 20.
C57B mice (for syngeneic B16-F0 mouse melanoma model) and Hsd: Athymic nude nu/nu mice (for A2058 human melanoma mouse xenografts model), were used for testing the impact of oral administration of COH-SR4 on melanoma progression in vivo models. In each model, ten 10-weeks-old mice were divided into two groups of 5 animals (treated with corn oil (vehicle), and COH-SR4 compound (4 mg/kg b.w.). All animals were injected with 2×10^6 melanoma cells suspensions in 100 μL of PBS, subcutaneously into one flank of each mouse. Treatment was started 10 days after the implantation of melanoma cells. Treatment consisted of 0.1 mg of COH-SR4/mice in 200 μL corn oil by oral gavage on alternate days. Control groups were treated with 200 μL corn oil by oral gavage alternate day. Animals were examined daily for signs of tumor growth and body weights were recorded. […] Animals were examined daily for signs of tumor growth. Tumors were measured in two dimensions using calipers. […] Tumors were measured in two dimensions using calipers and time-course analysis of tumor regression was performed during the study. […]

[1] = system: HAVSMC, NHDFs, melanocytes; experiment: MTT assay, normal cells; assay type: cell-based, human; details: 24 h and 48 h
Experimental: (§1) Cell density measurements were performed using a hemocytometer to count reproductive cells resistant to staining with trypan blue. Approximately 20,000 cells were plated into each well of 96-well flat-bottomed micro-titer plates. After 12 h or 24 h incubation at 37° C., medium containing either COH-SR4 (ranging 0-200 μM) or elesclomol (ranging 0-20 μM) were added to the cells. After 24 h, 48 h or 96 h incubation, 20 μL of 5 mg/mL MTT were introduced to each well and incubated for 2 h. The plates were centrifuged and medium was decanted. Cells were subsequently dissolved in 100 μl DMSO with gentle shaking for 2 h at room temperature, followed by measurement of OD570 (91).

GSTP = biological target: T1, GSTP (Homo sapiens, UniProt P09211); experiment: GSTP activity towards CDNB in the presence of GSR4; assay type: biochemical; details: activity towards CDNB; read-out: estimated Ki (product inhibitor of GSTP)
T1 construct: made in house; host or cells: E. coli BL21 (DE3)
T1 sequence (P09211 whole entry): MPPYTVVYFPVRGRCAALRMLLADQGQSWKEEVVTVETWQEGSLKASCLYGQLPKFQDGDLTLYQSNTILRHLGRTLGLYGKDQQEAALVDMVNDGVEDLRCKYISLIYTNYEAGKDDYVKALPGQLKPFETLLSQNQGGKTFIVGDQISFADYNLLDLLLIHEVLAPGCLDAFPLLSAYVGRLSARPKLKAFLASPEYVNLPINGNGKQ
Experimental: Furthermore, GSTP activities towards CDNB were assessed in the presence of various concentration of GSR4. The GSTP activities decreased when the concentration of GSR4 increased (Table 3). Thus, […] was a product inhibitor of GSTP with an estimated Ki of less than 5 μM.

H1618 cells = experiment: MTT assay, H1618; assay type: cell-based; details: Homo sapiens, 48 h
Experimental: as §1
(§2) The effect of COH-SR4 was first examined in a NCI panel of cancer cell lines, the results of which indicated good activity of COH-SR4 towards lung cancer (FIG. 78A). […] Values are presented as mean±SD from two separate determinations with eight replicates each (n=16) (FIG. 78B). […] Standard colony-forming assay was performed and the colonies were counted using Innotech Alpha Imager HP. […] TUNEL assay was performed using Promega fluorescence detection kit and examined using Zeiss LSM 510 META laser-scanning fluorescence microscope with filters 520 and 620 nm. […]

H358 cells = experiment: MTT assay, H358; assay type: cell-based; details: Homo sapiens, NCI-H358, 48 h
Experimental: as §1, §2

O=C(Nc1cc(Cl)cc(Cl)c1)Nc1cc(Cl)cc(Cl)c1 [COH-SR4, 1,3-bis(3,5-dichlorophenyl) urea]
tumor cross-section areas compared to corn oil (B16-F0 melanoma; Example 16, 4 mg/kg oral gavage alternate day): significantly smaller | day of death (B16-F0 melanoma; Example 16, 4 mg/kg, corn oil only died on day 20): 48 days | tumor weights compared to corn oil (B16-F0 melanoma; Example 16, day 20): significantly smaller | tumor weight (B16-F0 melanoma; Example 22, day 20, control 2.36±0.2 g): 1.07 ± 0.2 g | survival (B16-F0 melanoma; Example 22, vehicle censored by day 20±2): 50 ± 5 days | cytotoxicity in normal cells [1]: did not cause any significant cytotoxicity | Ki (GSTP): < 5000 nM | IC50 (H1618 cells): 1500 ± 200 nM | IC50 (H358 cells): 2100 ± 200 nM
